Experimental findings from patent publication US20120015907A1, “Furopyridine compounds and uses thereof” (NOVARTIS AG, priority 2010, published 2012) are described below.

The target of one assay is T1, HCV polymerase (Hepatitis C virus genotype 1b, UniProt Q9WMX2).
T1 construct: (His)6 (C)
The assay is described as follows: biochemical. The following applies: polymerase assay of Biological Example 1; read-out: NS5B polymerase IC50.

Assay [1] has as its system HCV replicon I389luc-ubi-neo/NS3-3'/ET in ET (Huh-lucubineo-ET) cells. Kind of assay: Replicon assay (Biological Example 2), luciferase read-out. Type of assay: cell-based. The following applies: Hepatitis C virus, luciferase activity 48 hours after compound addition. The method, then: A cell line, ET (Huh-lucubineo-ET) is used for screening of compounds for inhibiting HCV RNA dependent RNA polymerase. The ET cell line is stably transfected with RNA transcripts harboring a I389luc-ubi-neo/NS3-3′/ET; replicon with firefly luciferase-ubiquitin-neomycin phosphotransferase fusion protein and EMCV-IRES driven NS3-5B polyprotein containing the cell culture adaptive mutations (E1202G; […]; K1846T) (Krieger at al, 2001 and unpublished). The ET cells are grown in DMEM (Dulbeco's Modified Eagle's Medium), supplemented with 10% fetal calf serum, 2 mM Glutamine, Penicillin (100 IU/mL)/Streptomycin (100 μg/mL), 1× nonessential amino acids, and 250 μg/mL G418 (“Geneticin”). Reagents are all available through Life Technologies (Bethesda, Md.). The cells are plated at 0.5-1.0×10^4 cells/well in the 96 well plates and incubated for 24 hrs before adding test compound. The compounds are added to the cells to achieve a final concentration of 0.1 nM to 50 μM and a final DMSO (dimethylsulfoxide) concentration of 0.5%. Luciferase activity is measured 48 hours later by adding a lysis buffer and the substrate (Catalog number Glo-lysis buffer E2661 and Bright-Glo luciferase system E2620 Promega, Madison, Wis.). Cells should not be too confluent during the assay. Percent inhibition of replication data is plotted relative to no compound control. To determine the EC50 (effective concentration at which 50% of the maximum inhibition is observed), a 10 point, 3-fold serial dilution for each compound is used, which spans a concentration range of 1000 fold. EC50 values were calculated by fitting % inhibition at each concentration to the following equation:
% inhibition=100%/[(EC50/[I])^b+1]
where b is Hill's coefficient.
(Replicon systems follow genome replication, usually without infectious particles.)

Each structure is given as a SMILES string.

Usually IC50 stands for the midpoint of a concentration-inhibition curve. In the case of `CNC(=O)c1c(-c2ccc(C3CC3)cc2)oc2nc(N(CCCS(C)(=O)=O)S(C)(=O)=O)c(C3CC3)cc12` [Example 24.9, 5-cyclopropyl-2-(4-cyclopropylphenyl)-N-methyl-6-(N-(3-(methylsulfonyl)propyl)methylsulfonamido)furo[2,3-b]pyridine-3-carboxamide], the half-inhibitory concentration (IC50) was 3 nM on HCV polymerase and no more than 100 nM in assay [1].

Take `CNC(=O)c1c(-c2ccc(F)cc2)oc2nc(N(CCCCC(=O)O)S(C)(=O)=O)c(I)cc12` [Example 19, 5-{[2-(4-Fluoro-phenyl)-5-iodo-3-methylcarbamoyl-furo[2,3-b]pyridin-6-yl]-methanesulfonyl-amino}-pentanoic acid]: the IC50 was 9 nM at HCV polymerase and no less than 5000 nM in assay [1].

As for `CNC(=O)c1c(-c2ccc(C3CC3)cc2)oc2nc(N(CCCCS(C)(=O)=O)S(C)(=O)=O)c(C3CC3)cc12` [Example 25.9, 5-cyclopropyl-2-(4-cyclopropylphenyl)-N-methyl-6-(N-(4-(methylsulfonyl)butyl)methylsulfonamido)furo[2,3-b]pyridine-3-carboxamide], the IC50 on HCV polymerase was 3 nM; in assay [1], no more than 100 nM.

For the compound `CNC(=O)c1c(-c2ccc(F)cc2)oc2nc3c(cc12)[C@@H](C)C[C@H](O)CN3S(C)(=O)=O` (single isomer, unassigned) [Example 34], the IC50 on HCV polymerase is 9 nM; in assay [1], no more than 100 nM.

Regarding `CNC(=O)c1c(-c2ccc(C)cc2)oc2nc(N(CCC[C@@H]3CCCS3(=O)=O)S(C)(=O)=O)c(C3CC3)cc12` [Example 24.7, 5-Cyclopropyl-6-{[3-((R)-1,1-dioxo-tetrahydrothiophen-2-yl)-propyl]-methanesulfonyl-amino}-2-p-tolyl-furo[2,3-b]pyridine-3-carboxylic acid methylamide], the results for the IC50 (on HCV polymerase; in assay [1]) were 5 nM and no more than 100 nM, respectively.

Regarding `CNC(=O)c1c(-c2ccc(F)cc2)oc2nc(N(C)S(C)(=O)=O)c(C#CCCC(=O)O)cc12` [Example 5, 5-(2-(4-fluorophenyl)-3-(methylcarbamoyl)-6-(N-methylmethylsulfonamido)furo[2,3-b]pyridin-5-yl)pent-4-ynoic acid], the IC50 on HCV polymerase is 256 nM; in assay [1] it was no less than 5000 nM.

`CNC(=O)c1c(-c2ccc(F)cc2)oc2nc3c(cc12)CCCCCN3S(C)(=O)=O` [Example 36, 2-(4-Fluoro-phenyl)-10-methanesulfonyl-5,6,7,8,9,10-hexahydro-1-oxa-10,11-diaza-cycloocta[f]indene-3-carboxylic acid methylamide]: the IC50 is 50 nM at HCV polymerase and no more than 100 nM in assay [1].

For `CNC(=O)c1c(-c2ccc(F)cc2)oc2nc3c(cc12)CCCCCCN3S(C)(=O)=O` [Example 36.4, 2-(4-Fluoro-phenyl)-11-methanesulfonyl-6,7,8,9,10,11-hexahydro-5H-1-oxa-11,12-diaza-cyclonona[f]indene-3-carboxylic acid methylamide], the IC50 was 5 nM at HCV polymerase and no more than 100 nM in assay [1].

Turning to `CNC(=O)c1c(-c2ccc(Cl)cc2)oc2nc(N(CCCC(C)(C)C(=O)O)S(C)(=O)=O)c(C3CC3)cc12` [Example 28.3, 5-(N-(2-(4-chlorophenyl)-5-cyclopropyl-3-(methylcarbamoyl)furo[2,3-b]pyridin-6-yl)methylsulfonamido)-2,2-dimethylpentanoic acid], the IC50 was 2 nM at HCV polymerase and no more than 100 nM in assay [1].

For the compound `CNC(=O)c1c(-c2ccc(C)cc2)oc2nc(N(C)S(C)(=O)=O)c(C3CC3)cc12` [Example 2.93, 5-cyclopropyl-N-methyl-6-(N-methylmethylsulfonamido)-2-p-tolylfuro[2,3-b]pyridine-3-carboxamide], the IC50 at HCV polymerase is 4 nM; in assay [1], no more than 100 nM.

Take `CNC(=O)c1c(-c2ccc(F)cc2)oc2nc(N(CCCC3CCCS3(=O)=O)S(C)(=O)=O)c(C3CC3)cc12` (racemic) [Example 24.4]: the IC50 is 9 nM on HCV polymerase and no more than 100 nM in assay [1].
